In this series the test system is human PKK mRNA. In words: Antisense inhibition of human PKK mRNA in HepaRG cells, 5,000 nM (Example 2). In kind it is cell-based. Put shortly: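 Percent inhibition of PKK mRNA is relative to untreated control, with qRT-PCR (probe set RTS3454) values adjusted to total RNA by RIBOGREEN. Oligonucleotides, fully phosphorothioate 2′-MOE gapmers, were delivered at 5,000 nM by electroporation into 20,000 HepaRG cells/well for about 24 h.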

Where [1] appears, read: HepaRG cells, 5,000 nM antisense oligonucleotide, human PKK mRNA, Table 18.
Setting [2] is: HepaRG cells, electroporation with 5,000 nM antisense oligonucleotide, approximately 24 hours, PKK mRNA by RT-PCR (RTS3454), relative to untreated control cells, Table 5 experiment.
Setting [3] is: Table 13, human PKK mRNA in HepaRG cells, 5-10-5 gapmers.
The mark [4] stands for this setting: human PKK mRNA, HepaRG cells, 5-10-5 motif oligonucleotides targeting SEQ ID NO: 1 and 10.
[5] abbreviates: Table 7, HepaRG cells, electroporation with 5,000 nM antisense oligonucleotide, approx. 24 hours, PKK mRNA by RT-PCR (RTS3454), relative to untreated control cells.
Setting [6] is: HepaRG cells, electroporation, 5,000 nM antisense oligonucleotide, approx. 24 hours, primer probe set RTS3454, relative to untreated control cells, Table 11.
[7] abbreviates: HepaRG cells, 5,000 nM antisense oligonucleotide, 5-10-5 gapmers, Table 16.
The mark [8] stands for this setting: Table 8, HepaRG cells, electroporation with 5,000 nM antisense oligonucleotide, approx. 24 hours, PKK mRNA by RT-PCR (RTS3454), relative to untreated control cells.
Where [9] appears, read: HepaRG cells, electroporation, 5,000 nM antisense oligonucleotide, approx. 24 hours, primer probe set RTS3454, relative to untreated control cells, Table 12.
[10] abbreviates: HepaRG cells, electroporation with 5,000 nM antisense oligonucleotide, approximately 24 hours, PKK mRNA by RT-PCR (RTS3454), relative to untreated control cells, Table 6 experiment.
Setting [11] is: human PKK mRNA, HepaRG cells, 5,000 nM antisense oligonucleotide, Table 18.
[12] abbreviates: human PKK mRNA in HepaRG cells, 5-10-5 gapmers, Table 14.

Strand notation (5' to 3'): a small letter for the sugar, then the base; units joined by * are phosphorothioate-linked, units joined directly phosphodiester-linked; [ ] holds rarer units or linkages, { } end groups; capitals alone tell only the bases. e = 2'-O-(2-methoxyethyl) (MOE); [5mC] = 5-methylcytosine; d = 2'-deoxy (DNA)

The % inhibition is the relative decrease from the control value, in per cent. Take “548707 (DNA eA*e[5mC]*eT*dA*dG*dT*dT*dT*d[5mC]*d[5mC]*dT*dA*dT*eA*eA*e[5mC]; antisense) [compound 548707]”: the “% inhibition” value under setting [1] came to 10%.

For the substance “547310 (antisense eA*eT*e[5mC]*eT*eT*dT*d[5mC]*dA*dA*dG*dA*dA*dG*d[5mC]*dA*eA*e[5mC]*e[5mC]*eA*eA) [compound 547310]”, the “% inhibition” value under setting [2] amounted to 81%.

As to “547577 (e[5mC]*eT*eA*eA*e[5mC]*dA*dG*dT*dA*dT*d[5mC]*dA*d[5mC]*dT*dG*eT*eA*e[5mC]*eT*eA; antisense) [compound 547577]”, the “% inhibition” value under setting [3] is listed as 79%.

As for “547626 (antisense eA*e[5mC]*eA*eG*eT*dA*dT*d[5mC]*dA*d[5mC]*dT*dG*dT*d[5mC]*d[5mC]*eT*eA*eT*eG*eT) [compound 547626]”, under setting [4], the “% inhibition” value is reported as 91%.

With “548722 (DNA eA*e[5mC]*eT*dG*dT*dA*d[5mC]*dT*dA*dG*dT*dT*dT*e[5mC]*e[5mC]*eT*eA; antisense) [compound 548722]”, under setting [1], the “% inhibition” value is on record as 26%.

Regarding “547377 (e[5mC]*eA*eT*eT*eT*dG*dT*dA*dT*dA*dG*dA*dA*dT*dG*eT*eA*eA*eA*eG; antisense) [compound 547377]”, the “% inhibition” value under setting [5] is given as 6%.

Take “546388 (e[5mC]*eT*eG*eA*eA*dA*dG*d[5mC]*dG*dG*dG*d[5mC]*dT*dT*d[5mC]*eA*eG*e[5mC]*e[5mC]*eA; antisense) [compound 546388]”: under setting [6], the “% inhibition” value came to 71%.

With “547706 (antisense eT*eG*e[5mC]*e[5mC]*eT*d[5mC]*d[5mC]*dT*dG*dG*d[5mC]*dA*dG*d[5mC]*d[5mC]*eT*eT*e[5mC]*eA*eA) [compound 547706]”, the “% inhibition” value under setting [7] is reported as 73%.

On to “546746 (eT*e[5mC]*e[5mC]*eT*eG*dT*dT*dG*d[5mC]*d[5mC]*dT*dG*dA*d[5mC]*dA*eT*eG*e[5mC]*eT*eA; antisense) [compound 546746]”, for which the “% inhibition” value under setting [3] was 65%.

Consider “546300 (antisense eT*eA*eA*eT*eG*dT*d[5mC]*dT*dG*dA*d[5mC]*dA*dG*dA*dT*eT*eT*eA*eA*eA) [compound 546300]”, for which the “% inhibition” value under setting [8] was determined as 58%.

Regarding “547307 (antisense eG*eA*eA*eG*e[5mC]*dA*dA*d[5mC]*d[5mC]*dA*dA*dA*d[5mC]*d[5mC]*dT*eT*eT*eT*e[5mC]*eT) [compound 547307]”, the “% inhibition” value under setting [2] was determined as 58%.

“548713 (DNA e[5mC]*eA*e[5mC]*dT*dG*dT*dA*d[5mC]*dT*dA*dG*dT*dT*eT*e[5mC]*e[5mC]; antisense) [compound 548713]”: the “% inhibition” value under setting [1] is listed as 33%.

As to “547471 (antisense e[5mC]*e[5mC]*eT*eT*eT*d[5mC]*dT*d[5mC]*d[5mC]*dT*dT*d[5mC]*dG*dA*dG*eA*eA*eG*e[5mC]*e[5mC]) [compound 547471]”, the “% inhibition” value (Table 9 experiment, HepaRG cells, 20,000 cells per well, electroporation with 5,000 nM antisense oligonucleotide, approx. 24 hours, PKK mRNA by RT-PCR (RTS3454), relative to untreated control cells) was 58% and the “% inhibition” value (Table 10 experiment, HepaRG cells, 20,000 cells per well, electroporation with 5,000 nM antisense oligonucleotide, approx. 24 hours, PKK mRNA by RT-PCR (RTS3454), relative to untreated control cells) came out at 43%.

Regarding “546453 (e[5mC]*eT*e[5mC]*eA*eT*dT*dG*dT*dT*dG*dT*dG*dT*dG*dG*e[5mC]*e[5mC]*e[5mC]*eT*e[5mC]; antisense) [compound 546453]”, the “% inhibition” value under setting [9] is recorded as 82%.

As for “547359 (e[5mC]*eG*eG*eG*eA*d[5mC]*dT*dG*dT*dA*d[5mC]*dT*dT*dT*dA*eA*eT*eA*eG*eG; antisense) [compound 547359]”, the “% inhibition” value under setting [10] is 81%.

As to “547655 (eA*eA*eT*eA*eT*d[5mC]*dA*d[5mC]*dT*dG*dT*d[5mC]*d[5mC]*dT*dA*eT*eA*eA*e[5mC]*eT; antisense) [compound 547655]”, the “% inhibition” value under setting [4] turned out to be 37%.

In the case of “548766 (antisense eT*eA*eT*eA*dT*d[5mC]*dA*d[5mC]*dT*dG*dT*d[5mC]*d[5mC]*eT*eA*eT*eA) [compound 548766]”, the “% inhibition” value under setting [11] was 36%.

Take “547700 (antisense eG*eT*eA*e[5mC]*e[5mC]*dT*dA*dT*dA*dA*d[5mC]*dT*dA*dT*dA*eA*e[5mC]*eA*eA*eT) [compound 547700]”: the “% inhibition” value under setting [7] turned out to be 0%.

As to “548745 (DNA eA*eT*e[5mC]*eA*d[5mC]*dT*dG*dT*dA*d[5mC]*dT*dA*dG*eT*eT*eT*e[5mC]; antisense) [compound 548745]”, the “% inhibition” value under setting [11] amounted to 71%.

Turning to “547355 (e[5mC]*eA*eA*eT*eT*dG*dT*dT*d[5mC]*d[5mC]*dG*dG*dT*dA*d[5mC]*eT*e[5mC]*eT*eG*e[5mC]; antisense) [compound 547355]”, under setting [10], the “% inhibition” value is 77%.

Take “546175 (antisense e[5mC]*eT*eG*e[5mC]*eA*d[5mC]*d[5mC]*dT*dG*dT*dT*d[5mC]*dG*dA*dT*eG*eT*eA*e[5mC]*eT) [compound 546175]”: the “% inhibition” value under setting [10] was found to be 78%.

As for “547594 (eG*eT*eT*eT*e[5mC]*d[5mC]*dT*dA*dT*dA*dA*d[5mC]*dT*dA*dT*eA*eA*e[5mC]*eA*eG; antisense) [compound 547594]”, the “% inhibition” value under setting [12] was found to be 19%.

Turning to “546418 (eA*eT*eG*eT*eG*dG*d[5mC]*dA*d[5mC]*dT*dG*d[5mC]*dA*dG*dG*e[5mC]*eA*eA*eT*eA; antisense) [compound 546418]”, the “% inhibition” value under setting [9] is 72%.

Regarding “547515 (antisense eA*eG*eA*eA*eG*dA*dT*dG*d[5mC]*d[5mC]*dA*d[5mC]*dT*d[5mC]*dT*e[5mC]*e[5mC]*eA*eT*eG) [compound 547515]”, the “% inhibition” value under setting [6] came out at 58%.

“546911 (eG*eT*e[5mC]*e[5mC]*eT*dA*dT*dA*dA*d[5mC]*dT*dA*dT*dA*dA*e[5mC]*eA*eA*eT*eA; antisense) [compound 546911]”: the “% inhibition” value under setting [4] came to 52%.

In the case of “546275 (eG*eA*eA*e[5mC]*e[5mC]*dA*dT*d[5mC]*d[5mC]*dA*dT*dA*dG*dA*dT*eA*eA*eT*e[5mC]*eT; antisense) [compound 546275]”, the “% inhibition” value under setting [8] came out at 87%.

As to “547590 (eA*eT*eA*eA*e[5mC]*dT*dA*dT*dA*dA*d[5mC]*dA*dG*dT*dA*eT*e[5mC]*eA*e[5mC]*eT; antisense) [compound 547590]”, under setting [12], the “% inhibition” value is reported as 0%.

Turning to “547391 (eA*eT*eA*eT*e[5mC]*d[5mC]*dA*dG*dA*dT*dA*dT*dG*dG*dT*eG*eT*eT*eT*eT; antisense) [compound 547391]”, the “% inhibition” value under setting [5] was 32%.

“547297 (antisense eT*eG*eG*eA*eA*dT*dG*dT*dG*d[5mC]*dA*d[5mC]*d[5mC]*dT*d[5mC]*eA*eT*e[5mC]*eT*eG) [compound 547297]”: the “% inhibition” value under setting [2] turned out to be 84%.

For “546154 (eT*eG*eG*e[5mC]*eA*dG*dT*dA*dT*dT*dG*dG*dG*d[5mC]*dA*eT*eT*eT*eG*eG; antisense) [compound 546154]”, under setting [2], the “% inhibition” value came to 85%.

Consider “546230 (antisense eG*eT*eG*eT*eG*d[5mC]*d[5mC]*dA*d[5mC]*dT*dT*dT*d[5mC]*dA*dG*eA*eT*eG*eT*eT) [compound 546230]”, for which, under setting [5], the “% inhibition” value stood at 70%.

With “547545 (antisense eA*eT*eA*e[5mC]*eT*d[5mC]*dG*d[5mC]*d[5mC]*dT*dT*dT*dG*dT*dG*eA*eT*eG*e[5mC]*eG) [compound 547545]”, the “% inhibition” value under setting [9] amounted to 43%.

Turning to “546700 (eT*eG*eG*eT*eT*d[5mC]*d[5mC]*d[5mC]*dT*dA*dG*d[5mC]*dG*dG*dT*e[5mC]*e[5mC]*eA*eG*eA; antisense) [compound 546700]”, the “% inhibition” value under setting [9] is 78%.

For the substance “547376 (eG*eA*eA*eT*eG*dT*dA*dA*dA*dG*dA*dA*dG*dA*dG*eG*e[5mC]*eA*eG*eT; antisense) [compound 547376]”, the “% inhibition” value under setting [5] came to 43%.

Take “547725 (eA*eT*eT*eG*eG*dT*dG*dG*dT*dG*dG*dG*dA*dT*dT*eG*eG*eT*eG*eG; antisense) [compound 547725]”: the “% inhibition” value (HepaRG cells, 5,000 nM antisense oligonucleotide, 5-10-5 gapmers, Table 17) was 26%.

In the case of “548768 (antisense eG*eT*eA*eT*d[5mC]*dA*d[5mC]*dT*dG*dT*d[5mC]*d[5mC]*dT*eA*eT*eA*eT) [compound 548768]”, the “% inhibition” value under setting [11] worked out at 56%.

In the case of “546389 (e[5mC]*eG*eT*eG*e[5mC]*dT*dG*dA*dA*dA*dG*d[5mC]*dG*dG*dG*e[5mC]*eT*eT*e[5mC]*eA; antisense) [compound 546389]”, under setting [6], the “% inhibition” value was determined as 71%.

As to “547403 (eA*eT*eT*eT*eT*dA*dG*dA*dA*dT*dG*dG*d[5mC]*dA*dG*eG*eG*eT*eT*e[5mC]; antisense) [compound 547403]”, under setting [5], the “% inhibition” value is on record as 10%.

Turning to “546808 (eA*eA*eA*eA*eT*dG*dA*d[5mC]*dA*d[5mC]*d[5mC]*dA*dA*dA*dA*eT*eT*e[5mC]*eG*e[5mC]; antisense) [compound 546808]”, under setting [3], the “% inhibition” value was determined as 0%.

Take “546266 (eA*e[5mC]*eA*eG*eT*d[5mC]*dT*dT*d[5mC]*dT*dG*dG*dG*dA*dG*eT*eA*eA*eA*eG; antisense) [compound 546266]”: the “% inhibition” value under setting [8] amounted to 63%.

For the origin of these results see patent US11840686B2, “Modulation of prekallikrein (PKK) expression” (Ionis Pharmaceuticals, Inc., priority 2013, dated 2023).
